Tests used:
[1] = system: TGF-β activation; conditions: alveolar macrophages from healthy volunteers, dose and exposure dependent; cited from earlier work
[2] = system: CD63 expression on basophils; experiment: Flow CAST basophil activation test, anti-FcεRI antibody stimulation, CD63/CCR3 flow cytometry on whole blood; type: cell-based, human
Text: To study this modulating action of CD63 by tritoqualine, the inventors have used the basophil and a modified commercial test, the Flow CAST® kit from BULHMANN Laboratories AG (Switzerland), which is a Basophil Activation Test (BAT) that can be used for the in vitro detection of basophil degranulation as well as for the study of immediate type allergic reactions and hypersensitivities.
The test is designed for the in vitro diagnosis of CD63 expression as a surface marker of activated basophils. The test is performed on whole blood; flow cytometry is used to quantify CD63 expression on the surface of activated basophils.
To evaluate degranulation via CD63 expression, the Flow CAST® kit has been partially used. This test includes an anti-IgE receptor. The inventors have only used the latter activator.
These different couplings make it possible to characterise cells separately and in particular basophils. 4 windowing zones will be distinguished according to whether or not CD63 labelling is observed and whether or not CCR3 labelling is observed • CD63+ and CCR3− which characterise non-basophilic degranulated cells. • CD63+ and CCR3+ which characterise degranulated basophils. • CD63− and CCR3− which characterise non-degranulated non-basophilic cells. • CD63− and CCR3+ which characterise non-degranulated basophils.
The degranulation protocol has been carried out using the Flow CAST. […]

[3] = Light sensitivity of the powder; type: physicochemical; conditions: white powder; degrades to Cotarnine and phthalic acid
[4] = molecular target: T1, histidine decarboxylase (Homo sapiens, UniProt P19113); conditions: cited from earlier work
T1 sequence (P19113 1-662): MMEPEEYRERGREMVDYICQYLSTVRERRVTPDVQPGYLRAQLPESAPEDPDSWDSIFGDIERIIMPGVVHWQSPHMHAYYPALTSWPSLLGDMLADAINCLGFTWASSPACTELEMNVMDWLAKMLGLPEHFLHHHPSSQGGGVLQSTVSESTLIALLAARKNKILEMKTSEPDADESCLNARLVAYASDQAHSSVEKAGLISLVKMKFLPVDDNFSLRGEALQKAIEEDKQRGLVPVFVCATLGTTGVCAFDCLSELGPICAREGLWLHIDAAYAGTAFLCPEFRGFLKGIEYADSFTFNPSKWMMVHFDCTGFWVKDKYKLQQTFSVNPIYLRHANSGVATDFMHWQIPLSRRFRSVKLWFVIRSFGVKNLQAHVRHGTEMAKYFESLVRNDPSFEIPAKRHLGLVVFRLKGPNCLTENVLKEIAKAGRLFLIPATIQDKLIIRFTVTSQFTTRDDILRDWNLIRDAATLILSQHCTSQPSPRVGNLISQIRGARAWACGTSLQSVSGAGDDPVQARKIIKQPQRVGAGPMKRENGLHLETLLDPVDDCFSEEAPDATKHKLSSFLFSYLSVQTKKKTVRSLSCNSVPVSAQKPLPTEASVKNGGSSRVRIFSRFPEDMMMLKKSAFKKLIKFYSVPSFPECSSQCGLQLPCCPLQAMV

[5] = system: BL6 mice sensitised to OVA receiving double-stranded RNA (Poly U/Poly A); experiment: Whole body plethysmography (PenH) in OVA-sensitised mice given double-stranded RNA poly(A:U); type: in vivo, mouse
Method: The inventors used a C57/B16J mouse model, hereafter referred to as BL6.
The protocol simulating a double-stranded RNA viral infection has been performed with 2 groups of 15 mice; these are 8 week old female mice. A control group treated only with saline served as a negative control.
BL6 mice are treated according to the protocol below. BL6 mice have been sensitised by intraperitoneal injections of […] OVA (ovalbumin) on days 0, 2 and 4. Thereafter, from day 10 to day 15, the mice have received a daily treatment with aerosolized OVA at the concentration of 20 mg/ml or saline for 20 min, using an ultrasound nebulizer (Ultra-Neb99). One hour later, the mice received […] of poly (A:U) or saline intranasally.
Group 3 which is sensitised to OVA and also receives double stranded RNA (Poly U/Poly A) according to the protocol described above but also tritoqualine at 10 mg/kg.
Each group is analysed by whole body plethysmography and the measurements are expressed in PenH. A measurement is performed every minute until 10 minutes after the introduction of the double-stranded RNA. Tritoqualine treatment is given 1 hour before the introduction of Poly U/Poly A (double-stranded RNA).
In group 3, which is the group treated with tritoqualine at a dose of 10 mg/kg (mice with viral infection after sensitisation to ovalbumin as well) there are have the following results at time 1 minute to 10 minutes, expressed in PenH units and averaged over 15 mice: […]

[6] = noted by the HAS; cited from earlier work

COCCN(CCCCc1ccc2c(n1)NCCC2)CC[C@H](Nc1ncnc2ccccc12)C(=O)O [PLN-74809]
inhibition of TGF-β activation [1]: up to 70%

CCOc1c(N)c2c(c(OCC)c1OCC)C(C1c3c(cc4c(c3OC)OCO4)CCN1C)OC2=O (centres unmarked) [tritoqualine, 7-amino-4,5,6-triethoxy-3-(5,6,7,8-tetrahydro-4-methoxy-6-methyl-1,3-dioxolo[4,5-g]isoquinolin-5-yl)phthalide]
cells still expressing CD63 ([2]; tritoqualine 5 μmol): approximately 40% | cells still expressing CD63 ([2]; tritoqualine 10 μmol): less than 2% | sensitivity to light [3]: very sensitive to light | inhibitory action on histidine decarboxylase [4]: very weak | difference in airway resistance between tritoqualine group and untreated group (statistical analysis) ([5]; 10 mg/kg, p<0.001): highly significant | airway resistance, mean of 15 mice ([5]; T1 (1 minute after double-stranded RNA), tritoqualine 10 mg/kg given 1 hour before): 3.05 PenH | airway resistance, mean of 15 mice ([5]; T2 (2 minutes), tritoqualine 10 mg/kg): 3.11 PenH | airway resistance, mean of 15 mice ([5]; T3 (3 minutes), tritoqualine 10 mg/kg): 3.13 PenH | airway resistance, mean of 15 mice ([5]; T4 (4 minutes), tritoqualine 10 mg/kg): 3.97 PenH | airway resistance, mean of 15 mice ([5]; T5 (5 minutes), tritoqualine 10 mg/kg): 4.07 PenH | airway resistance, mean of 15 mice ([5]; T6 (6 minutes), tritoqualine 10 mg/kg): 4.14 PenH | airway resistance, mean of 15 mice ([5]; T7 (7 minutes), tritoqualine 10 mg/kg): 4.02 PenH | airway resistance, mean of 15 mice ([5]; T8 (8 minutes), tritoqualine 10 mg/kg): 3.85 PenH | airway resistance, mean of 15 mice ([5]; T9 (9 minutes), tritoqualine 10 mg/kg): 3.14 PenH | airway resistance, mean of 15 mice ([5]; T10 (10 minutes), tritoqualine 10 mg/kg): 2.74 PenH

COC(=O)c1ccc2c(c1)NC(=O)/C2=C(\Nc1ccc(N(C)C(=O)CN2CCN(C)CC2)cc1)c1ccccc1 [OFEV, Nintedanib]
side effects [6]: ~92%
